The nature of data set [1]: Risdiplam solubility in tartaric acid solution with sodium croscarmellose or crospovidone (UPLC). The following applies: 0.6 mg/ml tartaric acid in tap water, pH 4.1, stirred 30 minutes, room temperature. Type of data set: physicochemical. The method, then: 60 mg of Tartaric Acid were dissolved in 100 ml tap water (0.6 mg/ml) at room temperature and protected from light. A representative amount of Sodium Croscarmellose or Crospovidone was added and dispersed. After that, 100 mg of risdiplam were added, the suspension stirred for 30 minutes und the concentration analyzed by UPLC (see Table 11).

A short description of data set [2]: Impact of sucralose on risdiplam stability. The settings on record: 25 mg risdiplam and 475 mg Sucralose, 15 days at 70° C./75% Relative Humidity. Type of data set: physicochemical. How it is done: FIG. 3: Discoloration and decomposition of risdiplam in the presence of Sucralose, a) Risdiplam+Sucralose at time 0, b) risdiplam+Sucralose (70° C./75% Relative Humidity) after 15 days, c) sucralose without Risdiplam (70° C./75% Relative Humidity) after 15 days.
The impact of Sucralose on Risdiplam stability was evaluated. Vial (a) contained […] and is shown at time 0; vial (b) is 25 mg risdiplam and 475 mg Sucralose after 15 days at 70° C./75% Relative Humidity; and vial (c) is Sucralose without Risdiplam after 15 days at 70° C./75% Relative Humidity.

The conditions of data set [3]: air of a workplace; classified by regulatory authorities at EU and national levels; cited from earlier work.

With `Cc1cn2nc(-c3cc(=O)n4cc(N5CCNC6(CC6)C5)ccc4n3)cc(C)c2n1` [Risdiplam, 7-(4,7-diazaspiro[2.5]octan-7-yl)-2-(2,8-dimethylimidazo[1,2-b]pyridazin-6-yl)pyrido[1,2-a]pyrimidin-4-one], the “Concentration (Nominal 1 mg/ml)” value is 970 µg/mL in data set [1] (with Crospovidone (75 mg)) and 280 µg/mL in data set [1] (with Sodium Croscarmellose (75 mg)). In data set [2], the “Stability of risdiplam in presence of Sucralose” value is “cause discoloration and promote the decomposition of risdiplam”. The “IOEL (occupational exposure limit)” value in data set [3] was 1.0-10 microgram/m3.

(Values after patent US20250144031A1, “COMPOSITION FOR TREATING SPINAL MUSCULAR ATROPHY” (Hoffmann-La Roche Inc., priority 2023, published 2025).)
